According to patent US11590453B2, “Membrane disinfectant” (Diversey, Inc., priority 2017, dated 2023):

Experiment: pH of test solutions
Assay type: physicochemical

Measured: pH

O=[N+]([O-])O [Nitric Acid Solution, Nitric Acid]
2.00: solution of membrane compatibility test, Table 6 | solution of membrane compatibility test, Table 8 | solution of salt retention test, Table 7
